How the values were obtained:
[1] = system: PGC-1α promoter; experiment: PGC-1α promoter luciferase assay (compound screening) in SH-PGC-1α-Luc reporter cells; assay type: cell-based, human; settings: SH-PGC-1α-Luc cells, comparison of 14 drugs
Protocol: In order to prepare lentiviruses for preparation of stable reporter SH-SY5Y cells (SH-PGC-1α-Luc), 1-kb pGL3-PGC-1α promoter-luciferase was cloned to pGreenFire (System Biosciences), and a lentivirus construct was first prepared (provided by Akyosi Fukamizu from University of Tsukuba, Japan).
HEK293T cells cultured in 15 cm dish were subjected to transfection with 32 μg of pGreenFire vector, 9 μg of VSVg envelope, 6.25 μg of Prev, and 12.5 μg of pMDL.
After 48 hours, viral supernatants were collected and concentrated using ultracentrifugation, and viral pellets were dissolved with PBS. SH-SY5Y cells were treated with concentrated virus and screened with puromycin (1 μg/ml) a day later.
SH-PGC-1α-Luc was dispensed in a white, flat-bottomed 96-well plate, where culture was performed to accommodate 10,000 cells in 100 μl of DMEM (10% FBS+penicillin/streptomycin (P/S)) per well, and the cells were stabilized in an incubator at 37° C. in the presence of 5% CO2 for 12 hours.
The next day, each drug was added to 50 μl of warmed DMEM to the final concentration of 20 μM, then 50 μl of DMEM was removed from the cell-containing plate, and 50 μl of drug-containing DMEM was added (final concentration of 10 μM). Cells were then exposed to the drug for 48 hours, and luciferase activity was measured using SteadyGlo reagent (Promega). […]

[2] = system: Parkinson's disease model mice; experiment: Pole test in AAV-PARIS Parkinson's disease model mice; assay type: in vivo; settings: AAV-PARIS injected mice, YPD-01 diet 0.5% w/w
Text: (§1) To prepare Parkinson's disease model mice, AAV-PARIS was stereotaxically injected into the substantia nigra area. The mice were fed with Chow or YPD-01 (2-(4-(1-hydroxypropan-2-yl)phenyl) isoindoline-1-one) diet (0.5% w/w) for 4 weeks, and then the brain was collected and sectioned using a microtome. Dopaminergic neurons were visualized by carrying out a reaction in the mouse brain tissue sliced into 35 μm sections using TH antibody, a neuronal dopamine marker, then exposed to Vectastine ABC (Vector biolabs) and DAB (Sigma) solutions. Six […] were used in each experiment.
In order to identify whether YPD-01 is effective in inhibiting the death of dopamine neurons and Parkinson's disease-like behavioral abnormality in the Parkinson's disease model, as shown in Example 5 above, a pole test, which is the most reliable behavioral experiment, was performed.
To investigate behavioral abnormality, Parkinson's disease model mice were transferred to a pole test cage to have the mice adapted for 3 minutes, and then the mouse tails were held and placed on the tip of a vertically erected pole. The time from the moment the mouse took off its hind foot from the tip of the pole until the mouse came down to the floor was measured.

[3] = system: PGC-1α protein in SH-SY5Y cells; experiment: Immunoblot of PGC-1α protein after treating SH-SY5Y cell line with compounds; assay type: cell-based, human; settings: SH-SY5Y cell line, 0.01, 0.1, 1, 10 μM, 48 hours
Protocol: To culture human neuroblasts SH-SY5Y cells (ATCC, Manassas, VA), 10% FBS (vol/vol, Welgene Gold Serum, cat #S 001-07) and DMEM (Welgene fresh media DMEM, cat #LM 001-05) including antibiotics were used, wherein the culture was performed in an incubator (Forma Direct Heat CO2 incubator, Thermo Scientific) at 37° C. in the presence of 5% carbon dioxide.
(§2) RIPA buffer was added to the SH-SY5Y cells and SN of C57L/6N mice, followed by homogenization with a homogenizer. Thereafter, the freezing and melting process was repeated three times, and quantification was performed using a BCA kit based on BSA to check the total amount of protein.
(§3) Lysates were identified by adding 2× SDS sample buffer, heating at 95° C. for 10 minutes to perform immunoblot, and then treating the desired protein with antibody.
(§4) In the immunoblot experiment, the darkness of the band was measured using the ImageJ (NIH, Bethesda, […], USA, http://rsb.info.nih.gov/ij/) program, and statistical analysis was performed using the darkness of the protein band in proportion to the loading control. The statistical analysis was performed using the GraphPad Prism version 7 (GraphPad Software) program. For the data, the unpaired two-tailed student's t-test was applied, wherein p<of 0.05 indicates statistical significance.
As shown in Example 3, an image of an immunoblot performed after treating the SH-SY5Y cell line with compounds (10 μM, 48 hours) is shown in FIG. 6.

[4] = system: dopamine neurons in substantia nigra of AAV-PARIS Parkinson's disease model mice; experiment: Death of dopamine neurons in AAV-PARIS Parkinson's disease model mice (TH immunohistochemistry and immunoblot); assay type: in vivo; settings: AAV-PARIS injected mice, diet 0.5% w/w for 4 weeks
Text: as §1
100 μl of pentobarbital (10 mg/ml) was injected into the abdomen of 8-week-old mice for anesthetization, mouse pericranium was peeled off, and then the left brain (X: 1.2, Y: −3.2, Z: −4.5) and right brain (X: 1.2, Y: 3.2, Z: −4.5) regions were marked based on the bregma. The marked portion was drilled, and the virus was injected slowly (30 seconds per 0.2 μl) through a syringe. After injecting the virus into the left brain, followed by a 2-minute standby, the same procedure was performed on the other side. After the surgical suture, the mice were carefully monitored, and breeding was followed in the cage until the recovery. […]

[5] = system: PGC-1α protein in the SN of mice; experiment: Immunoblot of PGC-1α protein in the substantia nigra (SN) of mice fed compound diet; assay type: in vivo; settings: diet 0.5% w/w for 1 week
Protocol: as §2, §3, §4
In FIG. 7, an immunoblot is shown for protein derived from the SN of mice fed with Chow, YPD-02 (2-[4-(3-oxo-1H-isoindol-2-yl)phenyl]propanoic acid), or YPD-01 (2-(4-(1-hydroxypropan-2-yl)phenyl) isoindoline-1-one) diet (0.5% w/w) for 1 week (quantitative graph quantified with β-actin/data was expressed as mean±SEM/statistical significance was measured by applying the unpaired two-tailed student t-test. * p<0.05, ** p<0.01.).

[6] = system: PGC-1α and main target genes (NRF-1, Tfam); experiment: RT-qPCR of PGC-1α and its target genes (NRF-1, Tfam) in Parkinson's disease model mice; assay type: in vivo; settings: substantia nigra of AAV-PARIS injected mice, diet for 4 weeks
Text: as §1
In the animal model experiment set up as in Example 5, whether the expression of PGC-1α and the main target genes (NRF-1, Tfam) of PGC-1α increases due to YPD-01 intake was measured by RT-qPCR method.
The midbrain of mice into which AAV-PARIS was stereotaxically injected and which were fed with Chow or YPD-01 diet for 4 weeks was collected, and RNA was extracted using the total RNA extraction kit (Intron Biotechnology). cDNA was synthesized using the cDNA synthesis kit (Enzynomics) and oligo dT from the extracted RNA. Using primers and SYBR green (Qiagen) reagents for the gene to be analyzed, gene expression in Rotor gene Q (Qiagen) was quantified via qPCR.

| Compound | activity on PGC-1α promoter among the 14 drugs (FIG. 5) [1] | symptoms of behavioral abnormality (time to come down from the top of the pole) [2] | amount of PGC-1α protein (immunoblot) [3] | death of dopamine neurons (TH immunohistochemistry) [4] | death of dopamine neurons (TH immunoblot in substantia nigra) ([4]; quantified with β-actin) | passage through the BBB [5] | protein level of PGC-1α in the SN (immunoblot) ([5]; quantified with β-actin) | PARIS-induced suppression of expression of NRF-1 (RT-qPCR) [6] | PARIS-induced suppression of expression of PGC-1α (RT-qPCR) [6] | PARIS-induced suppression of expression of Tfam (RT-qPCR) [6] |
| --- | --- | --- | --- | --- | --- | --- | --- | --- | --- | --- |
| CC(CO)c1ccc(N2Cc3ccccc3C2=O)cc1 (stereo not drawn) [YPD-01, 2-(4-(1-hydroxypropan-2-yl)phenyl) isoindoline-1-one] | highest | disappeared | increased the amount of PGC-1α protein regardless of the concentration | the death of dopamine neurons was meaningfully inhibited | the death of dopamine neurons by AAV-PARIS was inhibited | successfully passed through BBB | increased the protein level of PGC-1α | significantly recovered | significantly recovered | significantly recovered |
| CC(C(=O)O)c1ccc(N2Cc3ccccc3C2=O)cc1 (stereo not drawn) [YPD-02, 2-[4-(3-oxo-1H-isoindol-2-yl)phenyl]propanoic acid, reference compound] | – | – | increased the amount of PGC-1α protein in accordance with an increase in the drug concentration | – | – | – | – | – | – | – |
| CC(C)OC(=O)C(C)c1ccc(N2Cc3ccccc3C2=O)cc1 (stereo not drawn) [YPD-03, isopropyl 2-(4-(1-oxoisoindolin-2-yl)phenyl) propanoate] | – | – | increased the amount of PGC-1α protein in accordance with an increase in the drug concentration | – | – | – | – | – | – | – |

Source: patent US12564574B2, “Pharmaceutical composition for preventing or treating parkinson's disease, comprising 2-(4-(1-hydroxypropane-2-yl)phenyl)isoindoline-1-one compound” (YEP BIO CO. LTD., priority 2020, dated 2026)
